Measured values taken from patent EP0222155A1, “5-Fluorouracil derivatives” (TERUMO KABUSHIKI KAISHA trading as TERUMO CORPORATION, priority 1985, dated 1987).
Where two headings read alike, the source gives them in different places.

Key:
[1] = tested on: P388 cells; experiment: Antitumor activity: increase in life survival of mice transplanted i.p. with P388 cells; type: in vivo, CDF₁ mice; settings: for ILS (%): intraperitoneally once a day for five days, P388 in CDF₁ mice
Description: CDF₁ mice (male, 5 weeks old) were intraperitoneally transplanted with P388 cells at a dose of 1 x 10⁶ cells/mouse.
From the next day of the transplantation, a test compound of the invention in the form of 0.5% carboxymethylcellulose suspension was intraperitoneally administered once a day for consecutive five days. Percent increase in life survival was determined: [formula]

[2] = Acute toxicity test, oral administration; settings: mouse, in vivo, ICR male mice (7 weeks old), read-out: LD₅₀
Text: An acute toxicity test was run with ICR male mice (7 weeks old) by an oral administration.

[3] = tested on: platelet aggregation; experiment: Platelet aggregation-inhibitory activity in platelet-rich plasma; type: cell-based, rabbit; settings: Oryctolagus cuniculus
Description: From rabbit carotid […] was drawn blood (9 volumes) by means of a syringe containing 3.8% aqueous sodium citrate (1 volume). The blood was centrifuged to obtain platelet-rich plasma (PRP: 550,000/µl). Platelet aggregation-inhibitory activity of a compound of the invention was measure using as an aggregation-inducing agent arachidonic acid or collagen. 50%-inhibition concentration (IC₅₀) against the platelet aggregation caused by arachidonic acid (80 µM) and collagen (30 µg/ml) is shown in Table 2 for representative compounds according to the invention.

[4] = aggregation caused by arachidonic acid (80 µM), rabbit PRP, read-out: 50%-Inhibition concentration, Arachidonic acid
[5] = aggregation caused by collagen (30 µg/ml), rabbit PRP, read-out: 50%-Inhibition concentration, Collagen

IC50 [3, 4] | IC50 [3, 5] | Structure (SMILES) | ILS (%) ([1]; Dose 10 mg/kg/day) | ILS (%) ([1]; Dose 30 mg/kg/day) | ILS (%) ([1]; Dose 40 mg/kg/day) | survival days compared with control mice (in words) ([1]; Dose 100 mg/kg/day as stated in the text) | LD50 [2] | IC50 ([3]; read-out: 50%-Inhibition concentration, Arachidonic acid) | IC50 ([3]; read-out: 50%-Inhibition concentration, Collagen) | ILS (%) ([1]; Dose 100 mg/kg/day)
– | – | O=c1[nH]cc(F)c(=O)[nH]1 [Example 5-FU, 5-Fluorouracil] | 65.2% | 27.4% | -24.8% | survival days shorter than those for control mice | 309 mg/kg | > 1000 µM | > 1000 µM | –
32 µM | 140 µM | CC/C=C\C/C=C\C/C=C\C/C=C\C/C=C\CCCC(=O)OC(C)n1cc(F)c(=O)[nH]c1=O (stereo not drawn) [Example 3, 1-(α-5,8,11,14,17-eicosapentaenoyloxy-α-methyl)methyl-5-fluorouracil] | 26.8% | 49.2% | – | – | – | – | – | 82.1%
57 µM | 530 µM | CC/C=C\C/C=C\C/C=C\CCCCCCCC(=O)OC(CC)n1cc(F)c(=O)[nH]c1=O (stereo not drawn) [Example 2, 1-(α-9,12,15-octadecatrienoyloxy-α-ethyl)methyl-5-fluorouracil] | 27.2% | 39.7% | – | – | – | – | – | 73.8%
65 µM | 340 µM | CC/C=C\C/C=C\C/C=C\CCCCCCCC(=O)OC(C)n1cc(F)c(=O)[nH]c1=O (stereo not drawn) [Example 1, 1-(α-9,12,15-octadecatrienoyloxy-α-methyl)-methyl-5-fluorouracil] | 24.6% | 46.8% | – | – | – | – | – | 80.5%
